This is an account of results in ChEMBL document CHEMBL4806969, “Modulators of mas-related g-protein receptor x4 and related products and methods” (2020).

Data set [1] can be described thus: AUC in C57BL/6 mouse at 50 mg/kg, po measured upto 24 hrs by LC-MS/MS analysis. It is filed as ADME, organism-based. The conditions noted are these: in vivo. The arrangement: route oral, dose 50 mg/kg, time <=24.
A short description of data set [2]: Half life in C57BL/6 mouse at 50 mg/kg, po measured upto 24 hrs by LC-MS/MS analysis. It is filed as ADME, organism-based. The conditions noted are these: in vivo.
The target of data set [3] is Mas-related G-protein coupled receptor member X4 (Homo sapiens, UniProt Q96LA9). The data set is described as follows: Antagonist activity at human MRGPRX4 expressed in HEK cells incubated in dark for 1 hr at 37 degree C and then incubated for 30 mins at room temperature in presence of […] bilirubin by HTRF assay. It is filed as functional, cell-based.
Mas-related G-protein coupled receptor member X4, sequence (Q96LA9 whole entry): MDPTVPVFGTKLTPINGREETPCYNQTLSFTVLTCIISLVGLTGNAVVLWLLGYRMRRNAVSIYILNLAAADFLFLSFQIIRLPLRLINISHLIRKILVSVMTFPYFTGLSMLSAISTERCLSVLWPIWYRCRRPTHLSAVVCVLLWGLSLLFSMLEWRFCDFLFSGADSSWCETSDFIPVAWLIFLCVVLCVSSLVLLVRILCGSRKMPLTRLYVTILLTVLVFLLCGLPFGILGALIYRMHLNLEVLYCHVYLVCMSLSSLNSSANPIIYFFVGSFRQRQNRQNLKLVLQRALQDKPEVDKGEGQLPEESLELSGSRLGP

In data set [1], `O=C(O)c1cc(F)cc(COc2ccc(C(F)(F)F)cc2Cl)c1` yielded an area under the curve (AUC) at 24 h of 1040 µM·h. The compound also had a half-life in data set [2] of 4.8 h. For the same compound, in data set [3], the IC50 is less than 100 nM.

The compound `O=C(O)c1cccc(COc2ccc(C(F)(F)F)cc2Cl)c1F` yielded an AUC at 24 h in data set [1] of 2150 µM·h. In data set [2], this compound had a half-life of 11.2 h. In data set [3], the IC50 was less than 100 nM.

Turning to `O=C(O)c1cccc(COc2ccc(C(F)(F)F)cc2Cl)n1`, the exposure (AUC) at 24 h in data set [1] was 880 µM·h. Besides, the half-life in data set [2] was 3.2 h. Further, in data set [3], the IC50 was less than 100 nM.

Regarding `O=C(O)c1cccc(COc2ccc(Cl)cc2Cl)n1`, in data set [1], the area under the curve (AUC) at 24 h turned out to be 1210 µM·h. The compound also gave a half-life in data set [2] of 3 h. In data set [3], the half-inhibitory concentration (IC50) is less than 100 nM.

On to `O=C(O)c1cccc(COc2ccc(OC(F)(F)F)cc2Cl)n1`, for which the half-inhibitory concentration (IC50) in data set [3] is less than 100 nM.

As to `O=C(O)c1cccc(COc2ccc3c(c2)CCC3=O)c1`, in data set [3], the IC50 is more than 2500 nM.

For `N#Cc1cc(COc2ccc(C(F)(F)F)c(Cl)c2)cc(C(=O)O)c1`, the IC50 in data set [3] was less than 100 nM.

For the compound `CCc1cc(COc2ccc(Cl)c(Cl)c2Cl)nc(C(=O)O)c1`, in data set [3], the 50% inhibitory concentration (IC50) is less than 100 nM.

On to `Fc1ccc(COc2ccc(C(F)(F)F)cc2Cl)cc1-c1nnn[nH]1`, for which the IC50 in data set [3] is less than 100 nM.

For `COc1cc(COc2ccc(Cl)cc2Cl)cc(C(=O)O)c1`, the IC50 in data set [3] was less than 100 nM.

The compound `O=C(O)c1cccc(COc2ccc(Cl)cc2Cl)c1F` came in with an area under the curve (AUC) at 24 h in data set [1] of 1500 µM·h. The same compound gave a half-life in data set [2] of 5.9 h. Besides, the concentration for half-maximal inhibition (IC50) in data set [3] was less than 100 nM.

As for `O=C(O)c1cccc(COc2ccc(Cl)cc2C(F)(F)F)c1F`, in data set [3], the half-inhibitory concentration (IC50) is less than 100 nM.

In the case of `O=C(O)Cc1cccc(COc2ccc(Cl)cc2Cl)c1`, the IC50 in data set [3] is more than 2500 nM.

With `O=C(O)c1cccc(CNc2ccc(C(F)(F)F)cc2Cl)c1`, the concentration for half-maximal inhibition (IC50) in data set [3] was less than 100 nM.

In data set [1], `Cc1cc(COc2ccc(C(F)(F)F)cc2Cl)cc(C(=O)O)c1` registered an AUC at 24 h of 974 µM·h. Also, in data set [2], the half-life was 4.6 h. For the same compound, the IC50 in data set [3] is less than 100 nM.

With `Cc1cc(COc2ccc(OC(F)(F)F)cc2Cl)cc(C(=O)O)c1`, the half-inhibitory concentration (IC50) in data set [3] was less than 100 nM.

Regarding `O=C(O)c1cc(F)cc(COc2ccc3ccccc3c2)c1`, the half-maximal inhibitory concentration (IC50) in data set [3] was less than 100 nM.

Take `Cc1cc(C(F)(F)F)ccc1OCc1cccc(C(=O)O)n1`: the half-maximal inhibitory concentration (IC50) in data set [3] was less than 100 nM.

For the compound `Cc1cc(COc2ccc(Cl)c(Cl)c2Cl)nc(C(=O)O)c1`, in data set [3], the IC50 is less than 100 nM.

Regarding `COCCCNC(=O)c1cccc(COc2ccc(C(F)(F)F)cc2Cl)c1`, the 50% inhibitory concentration (IC50) in data set [3] was less than 100 nM.

For `COC(=O)c1cccc(COc2ccc(Cl)cc2Cl)c1`, the IC50 in data set [3] is more than 2500 nM.

As to `N#Cc1ccc(OCc2cccc(C(=O)O)c2)cc1`, in data set [3], the IC50 was more than 2500 nM.

Regarding `FC(F)(F)Oc1ccc(OCc2cccc(-c3nnn[nH]3)c2)c(Cl)c1`, the IC50 in data set [3] was less than 100 nM.

As to `N#Cc1cc(COc2ccc(C(F)(F)F)cc2Cl)nc(C(=O)O)c1`, the IC50 in data set [3] was less than 100 nM.

For `CC(Oc1ccc(C(F)(F)F)cc1Cl)c1cccc(C(=O)O)c1` (stereo not given), the IC50 in data set [3] is less than 100 nM.

As to `O=C(O)c1cccc(COc2ccc(C(F)(F)F)cc2F)c1`, the half-inhibitory concentration (IC50) in data set [3] was less than 100 nM.

`Cc1cc(COc2ccc(Cl)cc2Cl)cc(C(=O)O)c1`: in data set [3], the IC50 is less than 100 nM.

In the case of `O=C(O)c1cccc(COc2ccc(C(F)(F)F)c(Cl)c2)n1`, the half-maximal inhibitory concentration (IC50) in data set [3] was less than 100 nM.

With `O=C(O)c1nc(COc2ccc(C(F)(F)F)c(Cl)c2)ccc1F`, the IC50 in data set [3] was less than 100 nM.

As for `N#Cc1cc(COc2ccc(Cl)c(Cl)c2Cl)cc(C(=O)O)c1`, the IC50 in data set [3] was less than 100 nM.

Regarding `O=C(O)CNC(=O)c1cccc(COc2ccc(C(F)(F)F)cc2Cl)c1`, the IC50 in data set [3] was less than 100 nM.

`O=C(O)c1cccc(COc2ccc3c(c2)C(=O)CCC3)c1`: in data set [3], the IC50 was more than 2500 nM.

Turning to `NC(=O)c1cccc(COc2cccc(Cl)c2Cl)c1`, the IC50 in data set [3] was more than 2500 nM.

As for `O=C(O)c1cccc(CNc2ccc(C(F)(F)F)cc2Cl)n1`, in data set [3], the half-maximal inhibitory concentration (IC50) was less than 100 nM.

On to `O=C(O)c1cccc(COc2ccc3ccccc3c2Cl)c1F`, for which the IC50 in data set [3] was less than 100 nM.

Consider `O=C(O)c1cccc(COc2ccc(Cl)c(F)c2Cl)c1`, for which the IC50 in data set [3] was less than 100 nM.

Regarding `O=C(O)c1cccc(Oc2ccc([N+](=O)[O-])cc2Cl)c1`, the half-maximal inhibitory concentration (IC50) in data set [3] is more than 2500 nM.

With `Cc1cc(COc2ccc(C(F)(F)F)cc2C)cc(C(=O)O)c1`, the area under the curve (AUC) at 24 h in data set [1] came out at 572 µM·h. Further, in data set [2], the half-life is 3.6 h. For the same compound, the IC50 in data set [3] is less than 100 nM.

With `O=C(O)c1cccc(COc2ccc(C(F)(F)F)cc2C(F)(F)F)c1`, the concentration for half-maximal inhibition (IC50) in data set [3] was less than 100 nM.

Take `Cc1cc(C(F)(F)F)ccc1OCc1cc(C#N)cc(C(=O)O)c1`: the IC50 in data set [3] is less than 100 nM.

In the case of `Cc1cc(CNc2ccc(C(F)(F)F)cc2Cl)nc(C(=O)O)c1`, the IC50 in data set [3] is less than 100 nM.

Take `COc1cc(COc2ccc(C(F)(F)F)cc2Cl)cc(C(=O)O)c1`: the 50% inhibitory concentration (IC50) in data set [3] is less than 100 nM.

Regarding `c1cc(COc2ccc3ccccc3c2)cc(-c2nnn[nH]2)c1`, the half-maximal inhibitory concentration (IC50) in data set [3] is less than 100 nM.

On to `CC(C)c1ccccc1OCc1cccc(C(=O)O)c1`, for which, in data set [3], the IC50 is more than 2500 nM.

As for `O=C(O)c1cc(COc2ccc(C(F)(F)F)cc2Cl)cc(C2CC2)c1`, the concentration for half-maximal inhibition (IC50) in data set [3] is less than 100 nM.

Consider `FC(F)(F)Oc1ccc(OCc2cccc(-c3nnn[nH]3)c2)cc1Cl`, for which the IC50 in data set [3] was less than 100 nM.

For `Cc1ccc(COc2ccc(Cl)cc2Cl)cc1C(=O)O`, in data set [3], the IC50 is more than 2500 nM.

In the case of `O=C(O)c1cc(Br)cc(COc2ccc(C(F)(F)F)cc2Cl)c1`, the IC50 in data set [3] is less than 100 nM.

Regarding `CCOC(=O)c1cccc(COc2ccc(C(F)(F)F)cc2Cl)n1`, the IC50 in data set [3] is less than 100 nM.

On to `N#Cc1cc(COc2ccc(OC(F)(F)F)cc2Cl)cc(C(=O)O)c1`, for which, in data set [3], the IC50 is less than 100 nM.

`O=C(O)c1cccc(COc2ccc(OC(F)(F)F)c(Cl)c2)n1`: in data set [3], the IC50 is less than 100 nM.

Take `O=C(O)c1cc(F)cc(COc2ccc(Cl)c(Cl)c2Cl)c1`: the 50% inhibitory concentration (IC50) in data set [3] is less than 100 nM.

`O=C(O)c1cccc(COc2ccccc2Cl)c1F`: the 50% inhibitory concentration (IC50) in data set [3] is more than 2500 nM.

Consider `COc1ccc(C(=O)O)cc1COc1ccc(Cl)cc1Cl`, for which the concentration for half-maximal inhibition (IC50) in data set [3] is more than 2500 nM.

Take `O=C(O)c1cccc(COc2ccc(C(F)(F)F)c(Cl)c2)c1F`: the IC50 in data set [3] is less than 100 nM.

On to `CCc1cc(COc2ccc3ccccc3c2)nc(C(=O)O)c1`, for which the half-maximal inhibitory concentration (IC50) in data set [3] is less than 100 nM.

As to `O=C(O)c1cccc(COc2ccc(C(F)F)cc2Cl)c1`, in data set [3], the IC50 was less than 100 nM.

Turning to `Cc1cc(COc2ccc3ccccc3c2)cc(C(=O)O)c1`, the IC50 in data set [3] was less than 100 nM.

On to `O=C(O)c1cccc(COc2ccc(F)cc2Cl)c1`, for which, in data set [3], the IC50 is more than 2500 nM.

On to `FC(F)(F)c1ccc(OCc2cccc(-c3nnn[nH]3)n2)c(Cl)c1`, for which the IC50 in data set [3] is less than 100 nM.

`O=C(O)c1cccc(COc2ccc3ccccc3c2)c1F`: the IC50 in data set [3] was less than 100 nM.

Turning to `O=C(O)c1cccc(COc2ccc(OC(F)(F)F)cc2Cl)c1`, the IC50 in data set [3] is less than 100 nM.

With `O=C(O)c1cccc(COc2ccc(Cl)c(Cl)c2Cl)c1F`, in data set [3], the half-maximal inhibitory concentration (IC50) was less than 100 nM.

With `CC(=O)c1ccc(OCc2cccc(C(=O)O)c2)cc1`, the concentration for half-maximal inhibition (IC50) in data set [3] is more than 2500 nM.

With `CCCc1cc(COc2ccc(C(F)(F)F)cc2Cl)nc(C(=O)O)c1`, in data set [3], the IC50 is less than 100 nM.

Consider `O=C(O)c1cc(Cl)cc(COc2ccc(C(F)(F)F)cc2Cl)c1`, for which the IC50 in data set [3] was less than 100 nM.

For the compound `Fc1cc(COc2ccc(C(F)(F)F)cc2Cl)cc(-c2nnn[nH]2)c1`, the half-maximal inhibitory concentration (IC50) in data set [3] is less than 100 nM.

Regarding `Fc1c(COc2ccc(C(F)(F)F)cc2Cl)cccc1-c1nnn[nH]1`, the IC50 in data set [3] was less than 100 nM.

For the compound `COC(=O)c1cccc(COc2ccc3scnc3c2)c1`, the concentration for half-maximal inhibition (IC50) in data set [3] is more than 2500 nM.

Consider `Cc1cc(COc2ccc3ccccc3c2)nc(C(=O)O)c1`, for which the IC50 in data set [3] is less than 100 nM.

As to `O=C(O)c1cccc(COc2ccccc2Cl)c1`, the concentration for half-maximal inhibition (IC50) in data set [3] is more than 2500 nM.
